Reference: publication PMC10281575, “PfCRT mutations conferring piperaquine resistance in falciparum malaria shape the kinetics of quinoline drug binding and transport” (PLOS Pathogens, 2023)
Where “and” joins values, the source holds several entries; their conditions need not be identical. Identical values can stand only once. Like-named read-outs stand apart in the source and are kept apart here.

Target: T1, PfCRT^Dd2 (Plasmodium falciparum, UniProt Q8IBZ9, A220S/I356T/K76T/M74I/N326S/N75E/Q271E/R371I)
T1 sequence (Q8IBZ9 1-424 M74I/N75E/K76T/A220S/Q271E/N326S/I356T/R371I): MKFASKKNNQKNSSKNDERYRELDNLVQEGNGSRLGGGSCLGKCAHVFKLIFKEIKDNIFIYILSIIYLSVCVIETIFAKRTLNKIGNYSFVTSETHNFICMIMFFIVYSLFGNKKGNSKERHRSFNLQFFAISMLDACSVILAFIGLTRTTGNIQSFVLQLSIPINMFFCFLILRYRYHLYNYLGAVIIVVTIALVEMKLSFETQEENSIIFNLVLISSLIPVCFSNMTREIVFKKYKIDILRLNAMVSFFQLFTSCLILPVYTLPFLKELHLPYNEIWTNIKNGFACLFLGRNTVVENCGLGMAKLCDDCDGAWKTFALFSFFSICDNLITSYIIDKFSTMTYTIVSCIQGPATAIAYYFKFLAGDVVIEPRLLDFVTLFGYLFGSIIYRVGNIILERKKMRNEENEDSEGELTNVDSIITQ
Assay: Competition kinetics of drug transport (radiolabeled substrate plus cold inhibitor), PfCRT^Dd2-expressing oocytes
Assay type: cell-based
Design: expressed in transfected cells; host or cells: Xenopus laevis oocytes injected with in vitro transcribed RNA (pSP64T)
Settings: for PfCRTDd2-mediated PPQ transport 500 µM PPQ: single replicates; for Vmax, maximal velocity of drug transport: global fit; for β, partiality factor: factor on transport of the labeled drug by the other drug
Experimental: The experimental procedure and the data analysis were as described above.
The difference between the two models lies in the value of α, a parameter describing how much the affinity for the substrate changes when the inhibitor is already bound, and vice versa. […] The resulting Vmax,app values and the Vmax,app/KM,app ratios were plotted as a function of the inhibitor concentration (Fig 5A).
Drug transport assays were performed as previously described. Briefly, measurements of radiolabeled drug uptake were made over 1 h, unless otherwise specified. […] Where specified, one or more unlabeled drugs were also present at the indicated concentrations. […] The uptake assays were terminated by removing the oocytes from the reaction medium and washing them three times with 2 mL of ice-cold ND96 buffer. Each oocyte was transferred to a separate scintillation vial and lysed by the addition of 200 μL of a 5% SDS solution. The radioactivity in the sample was measured using a liquid scintillation analyser Tri-Carb 4910 TR (PerkinElmer). Water-injected oocytes were analyzed in parallel as a negative control. The buffer from each condition was measured in duplicate in parallel to each experiment to transform counts per minute into pmol of drug. Drug uptake attributable to PfCRT was determined by subtracting the background uptake from water-injected oocytes from that of PfCRT-expressing oocytes. In all cases, at least three independent experiments were performed on oocytes from different frogs, and for each condition in an experiment, measurements were made from 10 oocytes per treatment.
The following equations were adopted from Segel (1993), and the reader is referred to that text for the assumptions made in the author’s approach in the derivation of each equation [31]. The concentration of substrate is denoted as [S1] and the concentration of the inhibiting substrate is denoted as [S2]. KS1 and KS2 are the dissociation constants for the respective substrate-protein complexes.
Analyses of the kinetic data were performed using SigmaPlot version 13.0 and Python. The drug competition models were globally fit to the kinetic data using the least-squares method and ranked according to their corrected Akaike information criterion difference (ΔAICC) and their Akaike weight, using Python. The two top-ranked models were compared using an F-test.
This factor reflects how much the affinity of the transporter for one drug changes when the other drug is already bound in the protein cavity. In the former model, α > 0 and α ≠ 1. In the latter model, it could be thought of as if α = 1. Because of this, discriminating between the two models also means determining the value of α. In Mixed-type (Partial) inhibition, the apparent maximal velocity (Vmax,app) is given by Eq 22, Vmax,app=Vmax(1+β[S2]/αKS2)/(1+[S2]/αKS2) (Eq 22)
Vmax,app is the maximal rate of substrate transport at a certain inhibitor concentration. The half-maximal inhibitory concentration is given by the term in the denominator different from [S2], which in this case is αKS2. This means that by plotting Vmax,app as a function of [S2], the value of αKS2 can be derived after fitting the curve to Eq 23.
The half-maximal inhibitory concentration derived from this hyperbolic equation is equal to KS2. By plotting Vmax,app/KM,app as a function of [S2], one can derive KS2 after fitting the curve to Eq 25. The value of α can then be calculated dividing αKS2 by KS2.

**Q.** Which “PfCRTDd2-mediated PPQ transport 500 µM PPQ” value (50 µM CQ) does the source give for `Clc1ccc2c(N3CCN(CCCN4CCN(c5ccnc6cc(Cl)ccc56)CC4)CC3)ccnc2c1` [PPQ, piperaquine] here?
**A.** Its value is 89.07 pmol oocyte-1 h-1 and 87.88 pmol oocyte-1 h-1 and 107.53 pmol oocyte-1 h-1.

**Q.** And the “PfCRTDd2-mediated PPQ transport 500 µM PPQ” value (125 µM CQ)?
**A.** The value was 90.95 pmol oocyte-1 h-1 and 93.39 pmol oocyte-1 h-1 and 84.66 pmol oocyte-1 h-1.

**Q.** And the “PfCRTDd2-mediated PPQ transport 500 µM PPQ” value (200 µM CQ)?
**A.** Its value is 77.82 pmol oocyte-1 h-1 and 87.40 pmol oocyte-1 h-1 and 96.04 pmol oocyte-1 h-1.

**Q.** And the “PfCRTDd2-mediated PPQ transport 500 µM PPQ” value (400 µM CQ)?
**A.** The value was 65.21 pmol oocyte-1 h-1 and 77.83 pmol oocyte-1 h-1 and 82.19 pmol oocyte-1 h-1.

**Q.** And the “v / (Vmax - v)” value (1/[PPQ] 0.002000 µM-1)?
**A.** The value was 0.5629.

**Q.** And the “v / (Vmax - v)” value (1/[PPQ] 0.002857 µM-1)?
**A.** The value was 0.5805.

**Q.** What about the “v / (Vmax - v)” value (1/[PPQ] 0.005000 µM-1) of the same compound?
**A.** Its value is 0.7051.

**Q.** What about the “v / (Vmax - v)” value (1/[PPQ] 0.008000 µM-1) of the same compound?
**A.** Its value is 0.9675.

**Q.** And the “v / (Vmax - v)” value (1/[PPQ] 0.020000 µM-1)?
**A.** Its value is 1.1790.

**Q.** And the “most plausible inhibition model” value (16 models, ΔAICC, Akaike weight, F-test, label = cold inhibitor of the other drug's transport)?
**A.** The value was “partial noncompetitive inhibition”.

**Q.** What about the “Vmax, maximal velocity of drug transport” value (Mixed (Partial) model, drug as radiolabeled substrate) of the same compound?
**A.** The value was 130 ± 3 pmol oocyte^-1 h^-1.

**Q.** What about the Kd (Mixed (Partial) model, drug as cold inhibitor, read-out: KS, dissociation constant for the PfCRT-substrate complex) of the same compound?
**A.** Its Kd is 210 ± 50 µM.

**Q.** And the Kd (Mixed (Partial) model, drug as radiolabeled substrate, read-out: KS, dissociation constant for the PfCRT-substrate complex)?
**A.** The Kd was 125 ± 9 µM.

**Q.** And the “β, partiality factor” value (Mixed (Partial) model)?
**A.** Its value is 0.63 ± 0.08.

**Q.** And the “α, KS interaction factor” value (Mixed (Partial) model, label = radiolabeled substrate, other drug cold inhibitor)?
**A.** Its value is 1.2 ± 0.3.

**Q.** And the “Vmax, maximal velocity of drug transport” value (Noncompetitive (Partial) model, drug as radiolabeled substrate, other drug as cold inhibitor)?
**A.** The value was 131 pmol oocyte^-1 h^-1 and 131 ± 2 pmol oocyte^-1 h^-1.

**Q.** And the Kd (Noncompetitive (Partial) model, drug as cold inhibitor, read-out: KS, dissociation constant for the PfCRT-substrate complex)?
**A.** Its Kd is 201 µM and 200 µM.

**Q.** What about the Kd (Noncompetitive (Partial) model, drug as radiolabeled substrate, read-out: KS, dissociation constant for the PfCRT-substrate complex) of the same compound?
**A.** The Kd was 130 ± 6 µM.

**Q.** And the “β, partiality factor” value (Noncompetitive (Partial) model)?
**A.** Its value is 0.60 and 0.60 ± 0.06.

**Q.** What about the “KMapp ([3H]PPQ + CQ)” value ([CQ] 0 µM) of the same compound?
**A.** The value was 122.92 µM.

**Q.** What about the “Vmaxapp ([3H]PPQ + CQ)” value ([CQ] 0 µM) of the same compound?
**A.** The value was 130.71 pmol oocyte-1 h-1.

**Q.** What about the “Vmaxapp/KMapp ([3H]PPQ + CQ)” value ([CQ] 0 µM) of the same compound?
**A.** Its value is 1.0634 h⁻¹.

**Q.** And the “KMapp ([3H]PPQ + CQ)” value ([CQ] 25 µM)?
**A.** Its value is 130.31 µM.

**Q.** What about the “Vmaxapp ([3H]PPQ + CQ)” value ([CQ] 25 µM) of the same compound?
**A.** The value was 125.79 pmol oocyte-1 h-1.

**Q.** And the “Vmaxapp/KMapp ([3H]PPQ + CQ)” value ([CQ] 25 µM)?
**A.** The value was 0.9653 h⁻¹.

**Q.** And the “KMapp ([3H]PPQ + CQ)” value ([CQ] 50 µM)?
**A.** Its value is 129.68 µM.

**Q.** What about the “Vmaxapp ([3H]PPQ + CQ)” value ([CQ] 50 µM) of the same compound?
**A.** The value was 119.39 pmol oocyte-1 h-1.

**Q.** What about the “Vmaxapp/KMapp ([3H]PPQ + CQ)” value ([CQ] 50 µM) of the same compound?
**A.** The value was 0.9206 h⁻¹.

**Q.** And the “KMapp ([3H]PPQ + CQ)” value ([CQ] 125 µM)?
**A.** Its value is 128.38 µM.

**Q.** What about the “Vmaxapp ([3H]PPQ + CQ)” value ([CQ] 125 µM) of the same compound?
**A.** The value was 113.74 pmol oocyte-1 h-1.

**Q.** And the “Vmaxapp/KMapp ([3H]PPQ + CQ)” value ([CQ] 125 µM)?
**A.** Its value is 0.8860 h⁻¹.

**Q.** What about the “KMapp ([3H]PPQ + CQ)” value ([CQ] 200 µM) of the same compound?
**A.** The value was 133.02 µM.

**Q.** And the “Vmaxapp ([3H]PPQ + CQ)” value ([CQ] 200 µM)?
**A.** Its value is 109.91 pmol oocyte-1 h-1.

**Q.** What about the “Vmaxapp/KMapp ([3H]PPQ + CQ)” value ([CQ] 200 µM) of the same compound?
**A.** Its value is 0.8262 h⁻¹.

**Q.** What about the “KMapp ([3H]PPQ + CQ)” value ([CQ] 400 µM) of the same compound?
**A.** Its value is 140.80 µM.

**Q.** And the “Vmaxapp ([3H]PPQ + CQ)” value ([CQ] 400 µM)?
**A.** The value was 99.57 pmol oocyte-1 h-1.

**Q.** What about the “Vmaxapp/KMapp ([3H]PPQ + CQ)” value ([CQ] 400 µM) of the same compound?
**A.** Its value is 0.7072 h⁻¹.

**Q.** And the Kd (secondary plot, half-maximum inhibitory concentration of Vmax,app versus inhibitor concentration, read-out: αKS, dissociation constant between the drug and the PfCRT complex with the other drug)?
**A.** Its Kd is 205 ± 50 µM.

**Q.** And the “α (αKS divided by KS)” value (secondary plots, label = prebound drug)?
**A.** The value was 0.9 ± 0.7.
